Results: patent US20220168392A1 (priority 2019, published 2022)
Square brackets hold non-standard residues; d marks the D form. * marks the point of attachment. 2Nal = N[C@@H](Cc1ccc2ccccc2c1)C(=O)O; Propionyl = CCC(=O)*; Sar = CNCC(=O)O

Legend:
[1] = test system: Mouse; experiment: Maximum platelet elevation relative to baseline in normal healthy mice, single escalating doses; type: in vivo; parameters: key to pharmacodynamics (PD) effect class of the dose (beneficial effects on survival): **: large pharmacodynamics (PD) effect; *: modest effect; conditions: for Mouse Max Platelet Ratio: 3DP03-Piedmont-01
Text: (§1) The ratio of the maximum platelet counts to the baseline platelet counts following single escalating doses of RWJ-800088 to mice, rats, dogs, rhesus monkeys and human healthy volunteers is shown in Table 5. The dose required to achieve a 2-3.5-fold elevation in humans is ˜100-fold lower compared to mice, ˜1,000-fold lower compared to rats and >10,000-fold lower compared to canines and NHPs. […] The species differences in potency has been described for other TPO mimetics in the literature and is attributed to differences in receptor affinity (Erickson-Miller C L, et al. Discovery and characterization of a selective, nonpeptidyl thrombopoietin receptor agonist. Exp. Hematol. 2005; 33:85-93). […] It is discovered that the dose of RWJ-800088 that produces a survival benefit and protects against vascular and organ injury is the dose that produces a 2-4 fold elevation of platelets (Table 6).

[2] = test system: Rat; experiment: Maximum platelet elevation relative to baseline in normal healthy rats, single escalating doses; type: in vivo; parameters: key to pharmacodynamics (PD) effect class of the dose (beneficial effects on survival): **: large pharmacodynamics (PD) effect; *: modest effect; conditions: for Rat Max Platelet Ratio: TOX6984
Text: as §1

[3] = test system: C57BL/6 mice exposed to TBI; experiment: 30-day survival after TBI in C57BL/6 mice; type: in vivo, mouse
Text: (§2) Total Body Irradiation (TBI). Mice were irradiated bilaterally in the Cobalt-60 gamma-irradiation facility at the AFRRI. These animals were placed in well-ventilated plexiglass chambers made specifically for irradiating mice. An alanine/Electron Spin Resonance (ESR) dosimetry system (American Society for Testing and Material Standard E 1607) was used to measure the dose rates in the cores of acrylic phantoms (3 inches long and 1 inch in diameter) located in all empty slots of the exposure rack in the plexiglass chamber. ESR signals were measured with a calibration curve based on standard calibration dosimeters provided by the National Institute of Standard and Technology (NIST, Gaithersburg, Md.). The calibration curve was verified by inter-comparison with the National Physical Laboratory (NPL) in the United Kingdom. The corrections applied to the measured dose rates in phantoms were for decay of the Co-60 source and for a small difference in mass-energy absorption coefficients for water and soft tissue at the Co-60 energy level. Kaplan-Meier survival curves were plotted using GraphPad software; and trend in survival is compared between vehicle and drug-treated group.
(§3) The survival efficacy of RWJ-800088 was tested in C57BL/6 (another strain of mice with different radiation sensitivity compared to CD2F1) in males and females. […] All animals in saline treated groups (males and females) died whereas there was no mortality in RWJ-800088 treated groups 30 days post-TBI. […] All animals in saline treated groups died whereas there was 92% survival observed in the RWJ-800088 (24 h pre-TBI) treated group 30 days post-TBI.
To confirm the survival benefit provided by RWJ-800088 administration following TBI in another mouse strain with difference in radiation sensitivity, C57BL/6 male mice were irradiated at 8.0 Gy (˜LD70/30) followed by administration of a single subcutaneous dose of RWJ-800088 (1 mg/kg) at 24 h after TBI. The percentage of mice surviving on day 30 post-TBI for the RWJ-800088 treated group was 83% and for the saline treated group it was only 13% (2).

[4] = test system: C3H/HeN male mice exposed to TBI; experiment: 30-day survival after TBI in C3H/HeN mice; type: in vivo, mouse; conditions: C3H/HeN M, 8.75 Gy, 3 mg/kg single dose, Pre −24 hr; for Survival treatment: 3 mg/kg
Text: as §2, §3

[5] = test system: CD2F1 male mice exposed to supra-lethal TBI; experiment: Survival and recovery from gastrointestinal injury at supra-lethal TBI; type: in vivo, mouse
Experimental: Data are expressed as mean±Standard error of mean (SEM). Irradiated TPOm group compared with saline treated group, statistical significance by Student T test (p≤0.0001)
Bacterial translocation was determined as bacterial load in liver and spleen tissue as a result of radiation injury to the intestines and was quantified by real-time polymerase chain reaction (PCR) using the 16S rRNA gene consensus sequence. Naïve jejunum serves as a positive control and naïve spleen and liver serve as negative controls/baseline values. Data are expressed as mean±Standard error of mean (SEM). Irradiated TPOm group compared with saline treated group, statistical significance by Student T test (p≤0.0001).
Data are expressed as mean±Standard error of mean (SEM). Irradiated TPOm group compared with saline treated group, statistical significance by Student T test (p≤0.0001). Serum amaloyd A (SAA) and pro-calcitonin (PCT), sepsis markers, were both measured by ELISA.
Jejunum samples were collected at days 1, 3, 7, 9 post-TBI. Representative sections were stained with H&E. There was a 100% increased survival in the RWJ-800088 treated mice compared to the saline treated animals (FIG. 9A—Kaplan Meier plot).

[6] = C57BL/6 Both genders, 7.76 Gy, 0.3 mg/kg single dose, Post 6 hr
[7] = C57BL/6 Both genders, 7.76 Gy, 0.3 mg/kg single dose, Post 24 hr
[8] = C57BL/6 Both genders, 7.96 Gy, 0.3 mg/kg single dose, Post 6 hr
[9] = C57BL/6 Both genders, 7.96 Gy, 0.3 mg/kg single dose, Post 24 hr
[10] = C57BL/6 F, 8.75 Gy, 3 mg/kg single dose, Pre −24 hr
[11] = C57BL/6 M, 8.75 Gy, 3 mg/kg single dose, Pre −24 hr

Substance: methoxypolyethyleneglycol20000-propionyl-L-Isoleucyl-L-Glutamyl-Glycyl-L-Prolyl-L-Threonyl-L-Leucyl-L-Arginyl-L-Glutaminyl-L-2-Naphthylalanyl-L-Leucyl-L-Alanyl-L-Alanyl-L-Arginyl-Sarcosyl-Ne-(methoxypolyethyleneglycol20000-propionyl-L-Isoleucyl-L-Glutamyl-Glycyl-L-Prolyl-L-Threonyl-L-Leucyl-L-Arginyl-L-Glutaminyl-L-2-Naphthylalanyl-L-Leucyl-L-Alanyl-L-Alanyl-L-Arginyl-Sarcosyl-)-Lysinamide ({mPEG 20 kDa-Propionyl}-IEGPTLRQ[2Nal]LAAR[Sar]K-NH2; also: dimer: second identical mPEG-propionyl chain on Lys Nε of C-terminal lysinamide) [RWJ-800088]
- Mouse Max Platelet Ratio ([1]; dose 10 μg/kg): 0.9 ± 0.6
- Mouse Max Platelet Ratio ([1]; dose 30 μg/kg): 1.8 ± 0.4
- Mouse Max Platelet Ratio ([1]; dose 100 μg/kg): 2.5 ± 1.1
- Mouse Max Platelet Ratio ([1]; dose 300 μg/kg): 3.9 ± 0.9
- Mouse Max Platelet Ratio ([1]; dose 1000 μg/kg): 4.3 ± 0.5
- Mouse Max Platelet Ratio ([1]; dose 3000 μg/kg): 3.4 ± 1
- Dose for 2.0-4x Platelet Elevation in Healthy Subjects ([1]; Mice): ≥0.1 mg/kg
- pharmacodynamics (PD) effect class of the dose (beneficial effects on survival) ([1]; Mouse, dose 100 μg/kg): **
- Average of the Maximum Platelet Elevation/Baseline Platelet Counts ([1]; Mouse, dose 300 μg/kg): 3.9
- pharmacodynamics (PD) effect class of the dose (beneficial effects on survival) ([1]; Mouse, dose 300 μg/kg): **
- pharmacodynamics (PD) effect class of the dose (beneficial effects on survival) ([1]; Mouse, dose 1000 μg/kg): **
- pharmacodynamics (PD) effect class of the dose (beneficial effects on survival) ([1]; Mouse, dose 3000 μg/kg): **
- Platelet Elevation in Non-Irradiated Animals (fold increase over baseline) ([1]; TPOm dose 0.1 mg/kg): 2.50 fold increase over baseline
- Platelet Elevation in Non-Irradiated Animals (fold increase over baseline) ([1]; TPOm dose 0.3 mg/kg): 3.90 fold increase over baseline
- Platelet Elevation in Non-Irradiated Animals (fold increase over baseline) ([1]; TPOm dose 1 mg/kg): 4.30 fold increase over baseline
- Platelet Elevation in Non-Irradiated Animals (fold increase over baseline) ([1]; TPOm dose 2 mg/kg, imputed as mean of the 1 mg/kg and 3 mg/kg cohorts): 3.85 fold increase over baseline
- Platelet Elevation in Non-Irradiated Animals (fold increase over baseline) ([1]; TPOm dose 3 mg/kg): 3.40 fold increase over baseline
- Average of the Maximum Platelet Elevation/Baseline Platelet Counts ([2]; Rat, dose 3000 μg/kg): 3.1
- pharmacodynamics (PD) effect class of the dose (beneficial effects on survival) ([2]; Rat, dose 3000 μg/kg): **
- Dose for 2.0-4x Platelet Elevation in Healthy Subjects ([2]; Rats): ≥3 mg/kg
- Rat Max Platelet Ratio ([2]; dose 100 μg/kg): 1.0 ± 0.2
- Rat Max Platelet Ratio ([2]; dose 300 μg/kg): 1.7 ± 0.3
- Rat Max Platelet Ratio ([2]; dose 3000 μg/kg): 3.2 ± 0.6
- Survival Differential (Treatment-Vehicle) [3, 6]: 25%
- Survival treatment [3, 6]: 100%
- Survival Differential (Treatment-Vehicle) [3, 7]: 15%
- Survival treatment [3, 7]: 90%
- Survival Differential (Treatment-Vehicle) [3, 8]: 45%
- Survival treatment [3, 8]: 100%
- Survival Differential (Treatment-Vehicle) [3, 9]: 20%
- Survival treatment [3, 9]: 75%
- Survival Differential (Treatment-Vehicle) [3, 10]: 100%
- Survival treatment [3, 10]: 100%
- Survival Differential (Treatment-Vehicle) [3, 11]: 100%
- Survival treatment [3, 11]: 100%
- mortality 30 days post-TBI ([3]; C57BL/6 male and female, 8.75 Gy (LD100/30), 3 mg/kg 24 h prior to irradiation): no mortality
- percentage of mice surviving on day 30 post-TBI ([3]; C57BL/6 male, 8.0 Gy (~LD70/30), single SC dose 1 mg/kg at 24 h after TBI): 83%
- Survival Differential (Treatment-Vehicle) [4]: 92%
- Survival treatment [4]: 92%
- Survival treatment ([4]; listed as TPOm): 92%
- bacterial translocation to the liver and spleen ([5]; 1 mg/kg 24 hours prior to TBI (12.5 Gy per FIG. 10 legend)): significantly reduced
- number of viable crypts in jejunum ([5]; 11 Gy, 1 mg/kg 24 h prior to TBI (FIG. 9C)): significant increase
- increased survival compared to saline treated animals ([5]; 11 Gy, 1 mg/kg 24 h prior to TBI, 8 mice/group/time point (FIG. 9A)): 100%
- circulating sepsis biomarkers, serum amyloid A and procalcitonin ([5]; nine days post-TBI 11 Gy, 1 mg/kg 24 hours prior to TBI): significant reduction
